The values below are quoted from earlier work in patent US11439626B2 (Icahn School of Medicine at Mount Sinai, priority 2019, dated 2022).

Read-outs that look alike come from different tables or passages of the source.

Test in data set [1]: not given
The source holds these as a separate data set.

Data set [2] deals with patients with traumatic spinal cord injuries. The following applies: cervical injuries, 90 days post-injury.
The conditions of data set [3]: for % Abs: 100 mg dose.

As to `Nc1nc2ccc(OC(F)(F)F)cc2s1` [riluzole, 2-Amino-6-(trifluoromethoxy)benzothiazole], under “human, in vivo”, the “dose recovered in the urine” value is 90%, the “dose recovered in the urine as glucuronides” value was 85%, the “dose recovered in the urine as unchanged riluzole” value is on record as 2% and the “fecal excretion of administered dose” value is recorded as 5%. Also, for the setting “repeated twice daily dosing”, the accumulation entry is recorded as “approximately 2 fold”. Further, the trough concentrations in data set [1] (50 mg twice daily, non-smoking males, predicted profile (Bruno et al.)) was ~0.03 µg/mL. Moreover, the Proportional error in data set [1] (error model parameter (SIGMA)) is 0.0697. Further, the “V/F Inter-occasion variability” value in data set [1] (variability parameter (ETA)) is 0.111. For the same compound, the motor outcomes in data set [2] is “improved motor outcomes”. Further, in data set [3] (100 mg BID treatment arm, reported by Le Liboux et al.), the Cmin was ~40 ng/mL. In data set [3] (Fasted (observed)), the “% Abs” value is listed as 100%. Moreover, the “% Abs” value in data set [3] (Fed (observed)) is given as 80%.
